Test [1] has as its system LTB4 synthesis in human whole blood. Description: human whole blood (HWB) assay, inhibition of LTB4 production. In kind it is cell-based. The settings on record: heparinized human whole blood, calcimycin 20 μM stimulation, plasma LTB4. As to the method:
The compounds of the invention are additionally tested in a human whole blood (HWB) assay to determine their ability to inhibit the synthesis of LTB4 in a cellular system. Compounds are combined with heparinized human whole blood and incubated for 15 minutes at 37° C. Calcimycin (20 μM final, prepared in phosphate-buffered saline, pH 7.4) is then added and the mixture is incubated for another 30 minutes at 37° C. The samples are centrifuged for 5 min at low speed (1500×g) and the plasma layer is removed. Plasma LTB4 concentrations are then measured using an antibody-based homogenous time-resolved fluorescence method (CisBio, Bedford, Mass.). In general, the preferred potency range (IC50) of compounds in the HWB assay is between 10 nM to 10 μM, the more preferred potency range is 10 nM to 1 μM, and the most preferred potency range is 10 nM to 100 nM.

Another test addresses T1, human LTA4 hydrolase (Homo sapiens, UniProt P09960).
T1 sequence (P09960 1-611): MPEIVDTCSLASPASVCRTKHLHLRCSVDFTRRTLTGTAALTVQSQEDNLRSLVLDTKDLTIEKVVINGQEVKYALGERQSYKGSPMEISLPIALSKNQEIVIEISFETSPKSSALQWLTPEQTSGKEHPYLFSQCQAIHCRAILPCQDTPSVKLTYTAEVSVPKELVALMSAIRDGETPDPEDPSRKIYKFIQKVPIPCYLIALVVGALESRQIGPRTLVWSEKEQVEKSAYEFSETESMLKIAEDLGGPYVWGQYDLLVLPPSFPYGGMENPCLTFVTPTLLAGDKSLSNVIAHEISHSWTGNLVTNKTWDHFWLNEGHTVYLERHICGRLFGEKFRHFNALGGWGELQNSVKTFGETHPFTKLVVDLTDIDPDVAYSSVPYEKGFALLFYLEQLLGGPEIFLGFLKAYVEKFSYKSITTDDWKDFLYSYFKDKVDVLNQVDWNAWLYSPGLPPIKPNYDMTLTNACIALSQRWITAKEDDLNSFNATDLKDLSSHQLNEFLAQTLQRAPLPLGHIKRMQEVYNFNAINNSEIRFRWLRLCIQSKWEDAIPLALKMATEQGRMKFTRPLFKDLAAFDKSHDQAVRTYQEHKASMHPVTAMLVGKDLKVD
Description: LTA4H Enzyme assay (peptidase, Arg-AMC cleavage). In kind it is biochemical. Particulars: LTA4H enzyme 1 nM, Arg-AMC substrate 50 μM, room temperature 1 h, fluorescence 380/460 nm. As to the method:
The compounds of the invention are assessed for the ability to interact with human LTA4 hydrolase in an enzymatic assay that measures the ability of the enzyme to cleave the peptide bond of arginyl-aminomethylcoumarin (Arg-AMC). LTA4H Enzyme (1 nM final), Arg-AMC substrate (50 μM final), and compound are combined in a reaction buffer (50 mM Tris-HCl (pH 7.5), 100 mM KCl, 0.5% bovine serum albumin) at room temperature for 1 h. The formation of product is assessed by measuring the fluorescence of aminomethylcoumarin product (excitation wavelength 380 nm/emission wavelength 460 nm). In general, the preferred potency range (IC50) of compounds in the LTA4H Enzyme assay is between 0.1 nM to 10 μM, the more preferred potency range is 0.1 nM to 0.1 μM, and the most preferred potency range is 0.1 nM to 10 nM.

Regarding `CC(C)C(=O)N1CCN(Cc2ccc3cc(Oc4ccc(-c5ccn[nH]5)cn4)ccc3n2)CC1` [Example 26, 2-Methyl-1-(4-{6-[5-(2H-pyrazol-3-yl)-pyridin-2-yloxy]-quinolin-2-ylmethyl}-piperazin-1-yl)-propan-1-one], the IC50 stood at 130 nM in test [1] and 0.57 nM against human LTA4 hydrolase.
The corresponding values for `O=C(CO)N1CCN(Cc2ccc3cc(Oc4ccc(-c5ccn[nH]5)cn4)ccc3n2)CC1` [Example 27, 2-Hydroxy-1-(4-{6-[5-(2H-pyrazol-3-yl)-pyridin-2-yloxy]-quinolin-2-ylmethyl}-piperazin-1-yl)-ethanone] are 150 nM and 0.72 nM.
With `COCC(=O)N1CCN(Cc2ccc3cc(Oc4ccc(-c5ccn[nH]5)cn4)ccc3n2)CC1` [Example 28, 2-methoxy-1-(4-{6-[5-(2H-pyrazol-3-yl)-pyridin-2-yloxy]-quinolin-2-ylmethyl}-piperazin-1-yl)-ethanone], the IC50 in test [1] is 150 nM; against human LTA4 hydrolase, 0.87 nM.
With `CCC(=O)N1CCN(Cc2ccc3cc(Oc4ccc(-c5ccn[nH]5)cn4)ccc3n2)CC1` [Example 29, 1-(4-{6-[5-(2H-Pyrazol-3-yl)-pyridin-2-yloxy]-quinolin-2-ylmethyl}-piperazin-1-yl)-propan-1-one], the IC50 amounted to 190 nM in test [1] and 0.66 nM at human LTA4 hydrolase.
The corresponding values for `O=C1CCC2(CCN(Cc3ccc4cc(Oc5ccc(-c6ccn[nH]6)cn5)ccc4n3)CC2)N1` [Example 30, 8-{6-[5-(2H-Pyrazol-3-yl)-pyridin-2-yloxy]-quinolin-2-ylmethyl}-1,8-diaza-spiro[4.5]decan-2-one] are 190 nM and 1.1 nM.
On the same counts, the results for `N#CCC(=O)N1CCN(Cc2ccc3cc(Oc4ccc(-c5ccn[nH]5)cn4)ccc3n2)CC1` [Example 31, 3-Oxa-3-(4-{6-[5-(2H-pyrazol-3-yl)-pyridin-2-yloxy]-quinolin-2-ylmethyl}-piperazin-1-yl)-propionitrile] are 200 nM and 1 nM.
Take `CC(=O)N1CC2CN(Cc3ccc4cc(Oc5ccc(-c6ccn[nH]6)cn5)ccc4n3)CC2C1` (stereo not shown) [Example 32, 1-(5-{6-[5-(2H-Pyrazol-3-yl)-pyridin-2-yloxy]-quinolin-2-ylmethyl}-hexahydro-pyrrolo[3,4-c]pyrrol-2-yl)-ethanone]: the IC50 in test [1] was found to be 210 nM; against human LTA4 hydrolase it was 0.85 nM.
For the compound `CN(C(=O)CO)C1CCN(Cc2ccc3cc(Oc4ccc(-c5ccn[nH]5)cn4)ccc3n2)CC1` [Example 33, 2-Hydroxy-N-methyl-N-(1-{6-[5-(2H-pyrazol-3-yl)-pyridin-2-yloxy]-quinolin-2-ylmethyl}-piperidin-4-yl)-acetamide], the figures for the IC50 (in test [1]; at human LTA4 hydrolase) were 230 nM and 0.77 nM, respectively.
As for `C[C@@H](NCc1ccc2cc(Oc3ccc(-c4ccn[nH]4)cn3)ccc2n1)C(N)=O` [Example 34, (R)-2-({6-[5-(2H-Pyrazol-3-yl)-pyridin-2-yloxy]-quinolin-2-ylmethyl}-amino)-propionamide], the results for the IC50 (in test [1]; against human LTA4 hydrolase) were 800 nM and 5.7 nM, respectively.
For the compound `NC(=O)[C@H]1[C@@H]2CN(Cc3ccc4cc(Oc5ccc(-c6ccn[nH]6)cn5)ccc4n3)C[C@@H]21` [Example 35, (1α,5α,6α)-3-{6-[5-(2H-Pyrazol-3-yl)-pyridin-2-yloxy]-quinolin-2-ylmethyl}-3-aza-bicyclo[3.1.0]hexane-6-carboxylic acid amide], the IC50 in test [1] came to 220 nM; against human LTA4 hydrolase, 0.49 nM.
In the case of `CC(=O)N1CC(CN(C)Cc2ccc3cc(Oc4ccc(-c5ccn[nH]5)cn4)ccc3n2)C1` [Example 36, 1-{3-[(Methyl-{6-[5-(2H-pyrazol-3-yl)-pyridin-2-yloxy]-quinolin-2-ylmethyl}-amino)-methyl]-azetidin-1-yl}-ethanone], the IC50 in test [1] is 240 nM; on human LTA4 hydrolase, 0.98 nM.
The corresponding values for `CC(=O)N(C)C1CCN(Cc2ccc3cc(Oc4ccc(-c5ccn[nH]5)cn4)ccc3n2)CC1` [Example 37, N-Methyl-N-(1-{6-[5-(2H-pyrazol-3-yl)-pyridin-2-yloxy]-quinolin-2-ylmethyl}-piperidin-4-yl)-acetamide] are 270 nM and 0.86 nM.
The corresponding values for `C[C@@H]1CN(C(=O)CO)CCN1Cc1ccc2cc(Oc3ccc(-c4ccn[nH]4)cn3)ccc2n1` [Example 38, 2-Hydroxy-1-((R)-3-methyl-4-{6-[5-(2H-pyrazol-3-yl)-pyridin-2-yloxy]-quinolin-2-ylmethyl}-piperazin-1-yl)-ethanone] are 280 nM and 0.76 nM.
The corresponding values for `CS(=O)(=O)CC(=O)N1CCN(Cc2ccc3cc(Oc4ccc(-c5ccn[nH]5)cn4)ccc3n2)CC1` [Example 39, 2-Methanesulfonyl-1-(4-{6-[5-(2H-pyrazol-3-yl)-pyridin-2-yloxy]-quinolin-2-ylmethyl}-piperazin-1-yl)-ethanone] are 280 nM and 2 nM.
Consider `CC(C)(O)CNC(=O)[C@H]1[C@@H]2CN(Cc3ccc4cc(Oc5ccc(-c6ccn[nH]6)cn5)ccc4n3)C[C@@H]21` [Example 40, (1α,5α,6α)-3-{6-[5-(2H-Pyrazol-3-yl)-pyridin-2-yloxy]-quinolin-2-ylmethyl}-3-aza-bicyclo[3.1.0]hexane-6-carboxylic acid (2-hydroxy-2-methyl-propyl)-amide], for which the IC50 in test [1] worked out at 300 nM; at human LTA4 hydrolase it was 0.47 nM.
The corresponding values for `CC(=O)NC[C@@H]1[C@H]2CN(Cc3ccc4cc(Oc5ccc(-c6ccn[nH]6)cn5)ccc4n3)C[C@@H]12` [Example 41, N-((1α,5α,6α)-3-{6-[5-(2H-Pyrazol-3-yl)-pyridin-2-yloxy]-quinolin-2-ylmethyl}-3-aza-bicyclo[3.1.0]hex-6-ylmethyl)-acetamide] are 320 nM and 0.99 nM.
The corresponding values for `CC(=O)N1CCN(Cc2ccc3cc(Oc4ccc(-c5ccn[nH]5)cn4)ccc3n2)[C@H](CO)C1` [Example 42, 1-((S)-3-Hydroxymethyl-4-{6-[5-(2H-pyrazol-3-yl)-pyridin-2-yloxy]-quinolin-2-ylmethyl}-piperazin-1-yl)-ethanone] are 360 nM and 0.88 nM.
The corresponding values for `NC(=O)N1CCN(Cc2ccc3cc(Oc4ccc(-c5ccn[nH]5)cn4)ccc3n2)CC1` [Example 43, 4-{6-[5-(2H-Pyrazol-3-yl)-pyridin-2-yloxy]-quinolin-2-ylmethyl}-piperazine-1-carboxylic acid amide] are 380 nM and 3.9 nM.
`O=C(CO)N1C2CCC1CN(Cc1ccc3cc(Oc4ccc(-c5ccn[nH]5)cn4)ccc3n1)C2` [Example 44, 2-Hydroxy-1-(3-{6-[5-(2H-pyrazol-3-yl)-pyridin-2-yloxy]-quinolin-2-ylmethyl}-3,8-diaza-bicyclo[3.2.1]oct-8-yl)-ethanone]: the IC50 was found to be 410 nM in test [1] and 0.71 nM against human LTA4 hydrolase.
On the same counts, the results for `O=C(CNCc1ccc2cc(Oc3ccc(-c4ccn[nH]4)cn3)ccc2n1)N1CCCC1` [Example 45, 2-({6-[5-(2H-Pyrazol-3-yl)-pyridin-2-yloxy]-quinolin-2-ylmethyl}-amino)-1-pyrrolidin-1-yl-ethanone] are 420 nM and 2.8 nM.

Source of the values: patent US9403830B2, “Inhibitors of leukotriene production” (Boehringer Ingelheim International GmbH, priority 2012, dated 2016).
